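Following 48 hours of exposure in 96-well plates, responses at five concentrations were used to interpolate endpoints linearly. GI50: concentration for 50% inhibition of growth.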 Activity calls are given as the source filed them. No stated cut-off is given here; in the data, active = GI50 up to about 1.1 µM and inactive = higher.
Tests used:
Experiment in all cases: NCI tumour cell line growth inhibition, 48 h
[1] = test system: Hs-578T
[2] = test system: BT-549
[3] = test system: DLD-1
[4] = test system: DMS-273
[5] = test system: SNB-78
[6] = test system: LXFL 529
[7] = test system: M19-MEL
[8] = test system: XF498

Structure (SMILES) | GI50 [1] | GI50 [2] | other results
O=C1c2ccccc2C(=O)c2c(OCC3CO3)ccc(OCC3CO3)c21 (stereo unspecified) | 16.2 µM (inactive) | 6.28 µM (inactive) | 
Cc1cc(=O)oc2cc(O)c(CN(C)CC(=O)O)cc12 | > 100 µM (inactive) | > 100 µM (inactive) | 
C=CCNS(=O)(=O)c1ncnc2[nH]cnc12 | > 100 µM (inactive) | > 100 µM (inactive) | 
Cc1nc(O)c(Cc2ccccc2O)c(-c2ccccc2)n1 | > 100 µM (inactive) | > 100 µM (inactive) | 
CN1CCN(CCCN2c3ccccc3Sc3ccc(C(F)(F)F)cc32)CC1 | 4.35 µM (inactive) | 14.5 µM (inactive) | GI50 [3]: 13.8 µM (inactive); GI50 [4]: 6.65 µM (inactive); GI50 [5]: 15.7 µM (inactive); GI50 [6]: 10.2 µM (inactive); GI50 [7]: 1.87 µM (inactive)
CN(C)Cc1nsc(N(C)C)n1 | > 100 µM (inactive) | > 100 µM (inactive) | 
CC1C(=O)C(C)C(c2ccccc2)N(N=O)C1c1ccccc1 (stereo unspecified) | 46.7 µM (inactive) | > 100 µM (inactive) | GI50 [8]: 19.4 µM (inactive); GI50 [3]: > 100 µM (inactive); GI50 [4]: > 798 µM (inactive); GI50 [5]: > 47 µM (inactive); GI50 [6]: > 1000 µM (inactive); GI50 [7]: > 100 µM (inactive)
CC1=NN2C(c3ccc(C)cc3)=CSC2=NC(C)(C)C1 |  |  | GI50 [8]: 54 µM (inactive); GI50 [3]: > 100 µM (inactive); GI50 [5]: > 100 µM (inactive); GI50 [6]: > 100 µM (inactive); GI50 [7]: > 100 µM (inactive)
Cc1ccc(S[C@@H](C)[C@@](O)(CF)CN(Cc2ccccc2)C(=O)C(F)(F)F)cc1 | 18.3 µM (inactive) | 19.6 µM (inactive) | 
CC(=O)NNc1nc(C)c(C(=O)NNC(=O)C(=O)Nc2ccc(Cl)c([N+](=O)[O-])c2)s1 |  |  | GI50 [8]: 42.6 µM (inactive); GI50 [5]: 45.8 µM (inactive); GI50 [6]: 27.2 µM (inactive); GI50 [7]: 67.8 µM (inactive)
CC1(C)CCC[C@@]2(C)C1C(=O)[C@@H]1O[C@]1(C)[C@@H]2CO (stereo partly specified) | 34.3 µM (inactive) | 16.9 µM (inactive) | 
COc1ccc2nc(-c3ccccc3)cc(OCC(=O)O)c2c1 | > 100 µM (inactive) | > 100 µM (inactive) | 
CCOC(=O)c1c[nH]c2cc3c(cc2c1=O)CCS3 | > 100 µM (inactive) | > 100 µM (inactive) | 
O=C1N[C@@H](c2c[nH]c3ccc(Br)cc23)C(=O)N[C@H]1c1c[nH]c2ccc(Br)cc12 | 11 µM (inactive) | 13.6 µM (inactive) | 
COC(=O)c1nsc(OC)c1Cl | > 100 µM (inactive) | > 100 µM (inactive) | 
CC(NC(=O)C(=O)N/N=C1\C[C@@H](c2ccccc2)Nc2ccccc21)c1ccccc1 (stereo partly specified) |  |  | GI50 [8]: 18.3 µM (inactive); GI50 [3]: > 100 µM (inactive); GI50 [4]: 7.55 µM (inactive); GI50 [5]: > 100 µM (inactive); GI50 [6]: 77.4 µM (inactive); GI50 [7]: > 100 µM (inactive)
CCC1OC2C(CC=C(C)C)=C3OC(C)(O)C(C)(CC)C(=O)C3=C3OC(=O)C=C1C32 (stereo unspecified) |  | 15.1 µM (inactive) | 

Structure (SMILES) | GI50 [1] | GI50 [2] | other results
C=C(C)C1CCC2=CC(CC3(C)OC3C3=CC(C(=O)OC)=C(C1)O3)OC2=O (stereo unspecified) |  | > 100 µM (inactive) | 
NCc1c(C(N)=O)ncn1Cc1ccccc1 |  |  | GI50 [8]: > 100 µM (inactive); GI50 [4]: > 100 µM (inactive); GI50 [5]: > 100 µM (inactive); GI50 [6]: > 100 µM (inactive); GI50 [7]: > 100 µM (inactive)
CCCCCCCC/C=C\CCCCCCC/C=C1\C[C@](/C=C/C(=O)OC)(CO)OC1=O | 1.25 µM (inactive) | 2.33 µM (inactive) | 
CCCCc1ccc(Nc2nc3c(ncn3COCCBr)c(=O)[nH]2)cc1 | > 100 µM (inactive) | > 100 µM (inactive) | 
CC(=O)NNc1nc(C)c(C(/C=C/c2ccc(Cl)cc2)=N/NC(=O)C[N+](C)(C)C)s1 |  |  | GI50 [3]: > 100 µM (inactive); GI50 [4]: > 100 µM (inactive); GI50 [6]: > 100 µM (inactive); GI50 [7]: > 100 µM (inactive)
NC(=O)c1ccc(NCC2=CC(=O)C=CC2=O)cc1 | 30.3 µM (inactive) | 15.5 µM (inactive) | 
C=CCn1c(-c2ccc([N+](=O)[O-])cc2)csc1=N | > 100 µM (inactive) | 92.5 µM (inactive) | 
Cc1ccc(S(=O)(=O)N2CCCSCCSCCCSCC2)cc1 |  | > 100 µM (inactive) | 
CCOC(=O)c1c(C)n(Cc2ccccc2)c(=O)c2ccccc2c(=O)c2c(=O)ccc(=O)c1=2 | > 100 µM (inactive) |  | 
COc1cc(C2c3cc4c(cc3C(O)C3CCC(=O)N23)OCO4)cc(OC)c1OC (stereo unspecified) | 34.5 µM (inactive) | 14.9 µM (inactive) | 
CO[C@@H]1C[C@H]2[C@@H]3CC[C@H]([C@H](C)COC(C)=O)[C@@]3(C)CC[C@@H]2[C@@]2(C)CC[C@H]3C[C@]312 | > 100 µM (inactive) |  | 
Cc1ccc(S(=O)(=O)N/N=C(\C(=O)Nc2cccc([N+](=O)[O-])c2)c2nc3ccc([N+](=O)[O-])cc3nc2O)cc1 |  |  | GI50 [3]: > 100 µM (inactive); GI50 [5]: > 100 µM (inactive); GI50 [6]: 18.6 µM (inactive); GI50 [7]: 43.7 µM (inactive)
CCCCCCCCCCCCC/C=C1\C[C@H](O)COC1=O |  |  | GI50 [8]: 16.3 µM (inactive); GI50 [3]: 17 µM (inactive); GI50 [4]: 14.4 µM (inactive); GI50 [5]: 18.4 µM (inactive); GI50 [6]: 16.3 µM (inactive); GI50 [7]: 18.4 µM (inactive)
COc1ccc(C2CC(c3ccc4ccccc4c3O)=NN2C(C)=O)cc1OC (stereo unspecified) | 71.1 µM (inactive) | > 100 µM (inactive) | 
CCCc1c(OC)c(=O)c2c(OC)cc(OC)c3c4c(OC)cc(OC)c5c(=O)c(OC)c(CCC)c(c1c23)c54 |  | 15 µM (inactive) | 
CN/C(=N\c1ccc(OC)c2ccccc12)SC | > 10 µM (inactive) | > 10 µM (inactive) | 

Source: ChEMBL document CHEMBL1201862, “PubChem BioAssay data set” (2004)
